Assay results reported in article PMC12264554, “Application of preclinical absorption, distribution, metabolism, elimination in vitro techniques for the characterization and compound library optimization of novel antibiotic gallium salophen” (Drug Metabolism and Disposition, 2025).
Values belong to the compound of their own block, whether it stands above or below them.

Legend:
[1] = Microsomal clearance assay; assay type: in vitro ADME, rat; details: 2 μM, rat liver microsomes
Procedure: Library compounds were tested in triplicate at a concentration of 2 μM and incubated in 0.1 M potassium phosphate buffer containing 12 mM MgCl2 and 8 mM NADPH at pH 7.4 with either 0.5 mg/mL of Sprague–Dawley liver microsomes (Invitrogen). Samples were incubated for 0, 3, 7, 12, 20, and 30 minutes. At the designated time point, the incubation reaction was stopped by adding 100 μL of ACN containing 1 μM of either GaSal-4 or GaSal-5 as the internal standards. […] 7-Ethoxycoumarin (Sigma) was used as a positive control in this experiment. Intrinsic clearance (CLint) was calculated using eq. 2:(2) CLint=0.693/InVitroT1/2∗IncubationVolume/mgofmicrosomes∗45mgmicrosomes/gramofliver∗45gramsliver/kgofbodyweight
The average CLint ± SEM was determined for each compound for 2 replicates per time point.

S9 clearance assay = assay type: in vitro ADME; details: Sprague-Dawley, pH 7.4, S9 rat liver fraction
Procedure: Select library compounds were tested in triplicate at a concentration of 2 μM and incubated in 0.1 M potassium phosphate buffer containing 12 mM MgCl2 and 8 mM NADPH at pH 7.4 with 2.5 mg/mL of Sprague–Dawley S9 (Invitrogen). Incubations contained a final concentration of 2.5 mM UDP glucuronic acid, 0.10 mM adenosine 3’-phosphate 5’-phosphosulfate, 0.5 mM acetyl CoA, and 50 μg/mg protein alamethicin. All co-factors were from Sigma. Samples were incubated for 0, 3, 7, 12, 20, and 30 minutes. At the designated time point, the incubation reaction was stopped by adding 100 μL of ACN containing 1 μM of either GaSal-4 or GaSal-5 as the internal standard. […] A hundred microliter of supernatant was taken for LC-MS/MS analysis. 7-Ethoxycoumarin (Sigma) was used as a positive control in this experiment. Clearance was calculated according to eq. 3:(3) CLint=0.693/InVitroT1/2∗IncubationVolume/mgofS9∗165mgS9/gramofliver∗45gramsliver/kgofbodyweight
The average CLint ± SEM was determined for each compound for 3 replicates per time point.

[2] = Caco-2 permeability screening; assay type: in vitro ADME; details: human, Caco-2, pH 7.4, known drug standards
Procedure: (§1) Caco-2 cells were received from American Type Culture Collection and certified mycoplasma free. Cells were seeded on transwell plates (CoStar, growth area 0.33 cm^2/well, polycarbonate membrane, 0.33 μm pore size) between passage 20 and 27 and then analyzed between 21 and 25 days after wells were seeded to ensure enterocyte-like differentiation. Before assessing permeability, cells were washed once with Hank’s Balanced Salt Solution buffer, pH 7.4, and then incubated at 37 °C for 30 minutes. Transepithelial electrical resistance (TEER) was measured after equilibration before the experiment using an epithelial volt-ohmmeter (EVOM, World Precision Instruments), and cells were used if TEER > 250 Ω × cm^2. Cells were dosed to measure permeability from basolateral and apical sides at a concentration of 20 μM of test compound and 50 μM of Lucifer yellow. Lucifer yellow was used as a “zero permeability” marker to monitor the integrity of cell barrier. Samples were taken at 0 and 60 minutes from the donor side, and samples were taken at 30 and 60 minutes from the receiver side; media was replenished after the 30-minute sample was taken from both chambers. A calibration curve was prepared by serial dilution using the dosing solution in a 1:5 dilution. […] Samples were prepared for LC-MS/MS analysis by taking 100 μL of sample, adding 1 μM internal standard (GaSal-4 or GaSal-5), and crashing with 400 μL of methanol. Samples were centrifuged at 3000 rpm at 4 °C for 30 minutes, 200 μL of supernatant was transferred to a new plate, and 100 μL of water was added to each sample. Samples were vortexed and analyzed by LC-MS/MS as described earlier. […] To preliminarily evaluate organic cation transporter 1 (OCT1) or P-glycoprotein (P-gp)-dependent transport, transport studies were conducted with and without a 1 μM “inhibitor cocktail” alongside GaSal. […] The Papp for basolateral to apical, Papp apical to basolateral, and efflux ratio were reported for each compound. In order to calculate Papp, the concentration in the sampled time point was determined from the calibration curve and then converted to μg based on the volume of the chamber (0.2 mL for apical, 1.0 mL for basolateral). […] The calculation of Papp was determined using eq. […] Data are presented as the average ± SEM for each compound analyzed as n = 3 on 2 different days with 2 different cell line passages, for n = 6 total. GaSal is n = 3 on 3 different cell line passages since this was used as a test compound for the inhibition cocktail experiments.

Caco-2 cells = assay: Caco-2 permeability screening; assay type: in vitro ADME; details: Caco-2
Procedure: as §1

PL proteins = details: 2012, cited from earlier work; for PL protein bound: ref Pike and Skuterud, 1982, Zhang et al

concentration change over 30 minutes in microsomes [1]: metabolized by the microsomes
half-life at 2 µM (S9 clearance assay; average ± SEM n = 3): 25.2 ± 7.8 min
CLint scaled at 2 μM (S9 clearance assay; average ± SEM n = 3, read-out: Predicted CLint (converted)): 190 mL/min/kg
Compound: CCOc1ccc2ccc(=O)oc2c1 [7-ethoxycoumarin, 7-Ethoxycoumarin, reference compound]

efflux ratio at 60 min, 20 μM ([2]; read-out: Efflux Ratio B to A/ A to B): 1.46
Papp A→B at 60 min, 20 μM ([2]; read-out: Papp Apical to Basolateral): 0.02 ± 0.001 ×10⁻⁶ cm/s
Papp B→A at 60 min, 20 μM ([2]; read-out: Papp Basolateral to Apical): 0.03 ± 0.01 ×10⁻⁶ cm/s
Permeability Ranking (Caco-2 cells): Not Permeable
Compound: CN(Cc1cnc2nc(N)nc(N)c2n1)c1ccc(C(=O)N[C@@H](CCC(=O)O)C(=O)O)cc1 [Methotrexate, reference compound]
expected protein binding (PL proteins; control compounds, ref Zhang et al): 50%

Compound: CN(C)CCC=C1c2ccccc2CCc2ccccc21 [amitriptyline]
PL protein bound (PL proteins): > 90%

Compound: CN(C)CCCN1c2ccccc2CCc2ccccc21 [imipramine]
PL protein bound (PL proteins): > 90%
